Assay results reported in patent US20050153951A1, “Neurotrophic pyrrolidines and piperidines, and related compositions and methods” (priority 1999, published 2005).
Several values for one entry are separate records, joined by “and”; a condition that tells them apart may be missing. Equal values may be shown once.

How the values were obtained:
[1] = system: Human M17 Neuroblastoma Cells; test: Neurite outgrowth assay, M17 neuroblastoma cells; format: cell-based; details: MAP-2 immunofluorescence; active if greater than mean DMSO-treated control on the same plate
Procedure: M17 human neuroblastoma cells are cultured in 1:1 ratio of EMEM and Hams's F12 with 1×NEM and 10% FBS. The culture media contains 1×PSN antibiotic and is exchanged every other day, and the cells are passed in log phase near confluence.
(§1) Cultures are incubated with normal horse serum (1:50; Vector Labs) for about 20 min, rinsed and then incubated with primary antibody, microtubule associated-protein 2 (anti-mouse MAP-2; 1:1000; Chemicon) for about 2 h at about RT. Following primary antibody, cultures are rinsed and incubated with fluorescein anti-mouse IgG (rat absorbed; 1:50; Vector Labs) for about 1 h. After fluorescein incubation, the cultures are rinsed and read in PBS on a fluorescent plate reader (excitation: 485 nm; emission: 530 nm). […] The response to test compound is reported as percent of DMSO-treated control.

[2] = system: Dorsal Root Ganglion (DRG); test: Dorsal Root Ganglion (DRG) culture, neurite outgrowth; format: cell-based, rat; design: key: +: Positive results for each experiment; −: Negative results for each experiment; details: test compound 50-250 nM; neurite outgrowth examined days 1-5; positive if neurites of ≧1 diameter of the DRG; one symbol per experiment
Procedure: DRG are dissected from newborn or 1-day-old CD rats and placed into PBS on ice. After rinsing twice with sterile plating medium, DRG are transferred to empty wells of a 6-well plate coated with polyornithine/laminin (Becton Dickinson Labware) using #7 curved forceps. Three ml/well of plating medium are then added very gently, so as not to disturb the DRG. Plating medium is Leibovitz's L-15 medium (Gibco), plus 0.6% glucose, 33 mM KCl, 10% FCS, 10 mM Hepes and penicillin/streptomycin/glutamine. After overnight incubation at about 37° C. in 5% CO2, this medium is replaced with 3 mL/well of assay medium [Leibovitz's L-15 medium plus 0.6% glucose, 1% FCS, 1% N-2 supplement (Gibco), 10 μM ara-C, 10 mM Hepes, and penicillin/streptomycin/glutamine] containing either vehicle (DMSO, 1/200,000), positive control (24 ng/mL NGF) or test compound (50-250 nM). All media are prepared fresh daily. DRG are microscopically examined for neurite outgrowth on days 1-5.

[3] = system: Primary Rat Hippocampal Cells; test: Neurite outgrowth assay, primary rat hippocampal cells; format: cell-based; details: MAP-2 immunofluorescence; active if greater than mean DMSO-treated control on the same plate
Procedure: Hippocampal cells are dissected from the brains of embryonic day 18 rat pups and dissociated with trypsin (1 mg/mL) and trituration. Cells are seeded at 30,000 cells/well in 96-well plates filled with 100 μL MEM and 10% FBS. At 7 days in culture, cells are fixed with 4% paraformaldehyde and immuno-fluorescence is performed.
as §1

facial nerve = test: Rat facial nerve compression model; format: in vivo; details: p.o. about 20 mg/kg twice a day for 15 days; compared to vehicle and internal control; FIG. 1
Procedure: In this model, compressing the facial nerve causes paralysis of the whisker muscle on that side of the face. The untreated facial nerve on the other side functions as an internal control. […] The whisker movement recovery rate on the paralyzed side compared to the vehicle and internal control is shown in this FIGURE.
Long-Evans rats are anesthetized under ketamine (60 mg/kg)/xylazine (6 mg/kg). The facial nerve is exposed and mechanically compressed with forceps near the stylomastoid foramen unilaterally with the opposite, non-lesioned side serving as an internal control. […] Rats received test compound p.o. at about 20 mg/kg twice a day for 15 days after the surgery. Control rats received vehicle only. Three to eight rats are tested in each group. Restoration of whisker movement after the treatment with compounds of the present invention is recorded at different post-operative time points daily, up to two weeks, and is shown in FIG. 1.

[4] = system: PC12 cells and sensory ganglia; details: cultures of PC12 cells and sensory ganglia; Lyons et al. 1994; cited from earlier work

Compound	M17 Cell Response [1]	Rat Hippocampal Cell Response [3]	other results
O=C(NCc1cccnc1)c1ncoc1[C@@H]1CCCN1C(=O)OCc1ccccc1 [Compound 1]	103% of DMSO-treated control		DRG [2]: −
O=C(NCc1cccnc1)c1ncoc1[C@@H]1CCCN1S(=O)(=O)Cc1ccccc1 [Compound 3]			DRG [2]: −
O=C(OCc1cccnc1)c1ncoc1[C@@H]1CCCN1C(=O)OCc1ccccc1 [Compound 4]	134% of DMSO-treated control and 111% of DMSO-treated control	111% of DMSO-treated control and 123% of DMSO-treated control	DRG [2]: +
O=C(NCc1cccnc1)c1csc([C@@H]2CCCN2C(=O)OCc2ccccc2)n1 [Compound 11]			DRG [2]: +
O=C(NCc1cccnc1)c1csc([C@@H]2CCCN2S(=O)(=O)Cc2ccccc2)n1 [Compound 13]	102% of DMSO-treated control		DRG [2]: −
CCC(C)(C)C(=O)C(=O)N1CCC[C@H]1c1nc(C(=O)NCc2cccnc2)cs1 [Compound 14]	112% of DMSO-treated control and 108% of DMSO-treated control	116% of DMSO-treated control	
CCC(C)(C)C(=O)C(=O)N1CCC[C@H]1c1nc(COc2cccnc2)cs1 [Compound 19]	110% of DMSO-treated control	109% of DMSO-treated control	
CCC(C)(C)C(=O)C(=O)N1CCC[C@H]1C(=O)NNC(=O)[C@@H]1CCCN1C(=O)C(=O)C(C)(C)CC [Compound 24]	123% of DMSO-treated control	119% of DMSO-treated control and 104% of DMSO-treated control and 108% of DMSO-treated control	DRG [2]: + and −
CCC(C)(C)C(=O)C(=O)N1CCCC[C@H]1C(=O)NNC(=O)[C@@H]1CCCCN1C(=O)C(=O)C(C)(C)CC [Compound 25]	111% of DMSO-treated control	108% of DMSO-treated control	
CCC(C)(C)C(=O)C(=O)N1CC[C@H]1C(=O)NNC(=O)[C@@H]1CCN1C(=O)C(=O)C(C)(C)CC [Compound 26]		133% of DMSO-treated control	
CCC(C)(C)C(=O)C(=O)N1CCCC1c1nnc([C@@H]2CCCN2C(=O)C(=O)C(C)(C)CC)o1 (some centres unmarked) [Compound 30]	112% of DMSO-treated control and 103% of DMSO-treated control	161% of DMSO-treated control and 118% of DMSO-treated control and 130% of DMSO-treated control	Restoration of whisker movement on the paralyzed side (facial nerve): restored more rapidly; DRG [2]: +, +, +, +, +
CCC(C)(C)C(=O)C(=O)N1CCC[C@H]1c1nc(CCc2cccnc2)no1 [Compound 31]	111% of DMSO-treated control	124% of DMSO-treated control	DRG [2]: + and −
CCC(C)(C)C(=O)C(=O)N1CCC[C@H]1C(=O)NNC(=O)CCc1cccnc1 [Compound 32]	103% of DMSO-treated control		
CCC(C)(C)C(=O)C(=O)N1CCC[C@H]1c1nnc(CCc2cccnc2)o1 [Compound 33]	104% of DMSO-treated control	112% of DMSO-treated control	
CCC(C)(C)C(=O)C(=O)N1CCC[C@H]1C(=O)NNC(=O)CCc1cc(OC)c(OC)c(OC)c1 [Compound 34]	106% of DMSO-treated control	113% of DMSO-treated control	
CCC(C)(C)C(=O)C(=O)N1CCC[C@H]1c1nnc(CCc2cc(OC)c(OC)c(OC)c2)o1 [Compound 35]	106% of DMSO-treated control	126% of DMSO-treated control	
CCC(C)(C)C(=O)C(=O)N1CCCC[C@H]1C(=O)NNC(=O)CCc1cc(OC)c(OC)c(OC)c1 [Compound 37]	111% of DMSO-treated control	130% of DMSO-treated control	

Compound	M17 Cell Response [1]	Rat Hippocampal Cell Response [3]	other results
CCC(C)(C)C(=O)C(=O)N1CCCC[C@H]1c1nnc(CCc2cccnc2)o1 [Compound 38]	105% of DMSO-treated control	129% of DMSO-treated control	
CCC(C)(C)C(=O)C(=O)N1CCCC[C@H]1c1nnc(CCc2cc(OC)c(OC)c(OC)c2)o1 [Compound 39]	112% of DMSO-treated control		
CCC(C)(C)C(=O)C(=O)N1CCCCC1c1nnc([C@@H]2CCCCN2C(=O)C(=O)C(C)(C)CC)o1 (some centres unmarked) [Compound 44]	118% of DMSO-treated control		
O=C(C(=O)N1CCCC1c1nnc([C@@H]2CCCN2C(=O)C(=O)c2cccs2)o1)c1cccs1 (some centres unmarked) [Compound 48]		113% of DMSO-treated control	
CCC(C)(C)C(=O)C(=O)N1CCC[C@H]1C(=O)NNC(=O)[C@@H]1CCCN1C(=O)OCc1ccccc1 [Compound 50]		110% of DMSO-treated control	
COC(=O)C(=O)N1CCCC1c1nnc([C@@H]2CCCN2C(=O)C(=O)OC)o1 (some centres unmarked) [Compound 51]		107% of DMSO-treated control	
CCC(C)(C)C(=O)C(=O)N1CCC1c1nnc([C@@H]2CCN2C(=O)C(=O)C(C)(C)CC)o1 (some centres unmarked) [Compound 52]		110% of DMSO-treated control	
O=S(=O)(Cc1ccccc1)N1CCCC1c1nnc([C@@H]2CCCN2S(=O)(=O)Cc2ccccc2)o1 (some centres unmarked) [Compound 54]		113% of DMSO-treated control	
CCC(C)(C)C(=O)C(=O)N1CCC[C@H]1c1nnc(C2CCCN2)o1 (some centres unmarked) [Compound 55]		116% of DMSO-treated control	
COc1cc(C(=O)C(=O)N2CCCC2c2nnc([C@@H]3CCCN3C(=O)C(=O)c3cc(OC)c(OC)c(OC)c3)o2)cc(OC)c1OC (some centres unmarked) [Compound 56]		118% of DMSO-treated control and 116% of DMSO-treated control	
CCC(C)(C)C(=O)C(=O)N1CSCC1c1nnc([C@@H]2CSCN2C(=O)C(=O)C(C)(C)CC)o1 (some centres unmarked) [Compound 58]		142% of DMSO-treated control	
CCC(C)(C)C(=O)C(=O)N1CCC[C@H]1C(=O)NNC(=O)c1cccnc1 [Compound 59]		116% of DMSO-treated control	
CCC(C)(C)C(=O)C(=O)N1CCC[C@H]1c1nnc(-c2cccnc2)o1 [Compound 60]		114% of DMSO-treated control	
CC(C)(C)C(=O)C(=O)N1CCCC1c1nnc([C@@H]2CCCN2C(=O)C(=O)C(C)(C)C)o1 (some centres unmarked) [Compound 62]		120% of DMSO-treated control	
CCC(C)(C)C(=O)C(=O)N1CCCC1C(=O)NNC(=O)[C@H]1CCCN1C(=O)C(=O)C(C)(C)CC (some centres unmarked) [Compound 63]		110% of DMSO-treated control	
CCC(C)(C)C(=O)C(=O)N1CCC[C@@H]1c1nnc([C@H]2CCCN2C(=O)C(=O)C(C)(C)CC)o1 [Compound 64]		122% of DMSO-treated control	
C=CC[C@@H]1/C=C(\C)C[C@H](C)C[C@H](OC)[C@H]2O[C@@](O)(C(=O)C(=O)N3CCCC[C@H]3C(=O)O[C@H](/C(C)=C/[C@@H]3CC[C@@H](O)[C@H](OC)C3)[C@H](C)[C@@H](O)CC1=O)[C@H](C)C[C@@H]2OC [FK506]			neurotrophic activity [4]: shows neurotrophic activity
